Results: patent publication US20180256914A1, “COMPOSITIONS AND METHODS FOR THE TREATMENT OF MUCOSITIS ASSOCIATED WITH TREATMENT-INDUCED NEUTROPENIA” (KLOX TECHNOLOGIES INC., priority 2015, published 2018)

Tests used:
[1] = tested on: P. aeruginosa; assay type: cell-based, Pseudomonas aeruginosa; conditions: Trolox at concentrations above 2 mM; data not shown
[2] = Neutralisation by Trolox of ROS produced by gel containing 12% urea peroxide; conditions: 2 mM Trolox; FIG. 2

Q: For Cc1c(C)c2c(c(C)c1O)CCC(C)(C(=O)O)O2 (centres unmarked) [Trolox], which “cytotoxicity to P. aeruginosa” value [1] is on record?
A: not to be cytotoxic

Q: What about the “neutralization of ROS produced by the gel containing 12% urea peroxide” value [2] of the same molecule?
A: neutralize the ROS
